{"source": "patent US9801903B2", "about": "“Targeting cancer with metabolic therapy and hyperbaric oxygen” (priority 2012, dated 2017)", "system": "VM-M3/Fluc cells", "assay": "Whole animal tumor bioluminescence (tumor size and metastatic spread)", "type": "in vivo, VM/Dk mice", "conditions": "Example 2; day 21 post-inoculation; FIG. 8", "excerpt": "VM-M3/Fluc cells (T. Seyfried; Boston College) were obtained from a spontaneous tumor in a VM/Dk inbred mouse and adapted to cell culture (Huysentruyt et al., Metastatic cancer cells with macrophage properties: evidence from a new murine tumor model. Intl J Can. 2008, 123(1):73-84). […] VM-M3/Fluc cells are transfected with the firefly luciferase gene which produces a bioluminescent product in the presence of the enzymatic substrate luciferin (Shelton, et al. (2010) A novel pre-clinical in vivo mouse model for malignant brain tumor growth and invasion. Journal of neuro-oncology 99: 165-176). Bioluminescence can be detected and measured with the Xenogen IVIS Lumina System (Caliper LS). […] Bioluminescent signal was recorded using a 1 second exposure time on the IVIS Lumina cooled CCD camera. Progression of the metastatic cancer was measured by tracking the bioluminescent signal of the whole animal over time. Tumor bioluminescence will be measured once weekly for the duration of the study.\nTumor progression was measured using bioluminescence on the Xenogen IVIS Lumina cooled CCD camera (Caliper LS, Hopkinton, Mass.). […] Whole animal bioluminescent signal was measured in photons/sec once a week as an indicator of metastatic tumor size and spread. Tumor progression was measured 21 days after tumor cell inoculation."}
{"molecule": "CC(O)CCO", "note": "(centres unmarked) [BD, 1,3-butanediol]", "values": [{"measurement": "tumor bioluminescence / tumor growth and metastasis", "result": "greatly reduced tumor growth and reduced metastasis of the tumor"}]}
{"molecule": "CC(=O)CC(=O)OCC[C@@H](C)OC(=O)CC(C)=O", "note": "[KE, R,S-1,3-butanediol-diacetoacetate ester]", "values": [{"measurement": "tumor bioluminescence / tumor growth and metastasis", "result": "greatly reduced tumor growth and reduced metastasis of the tumor"}]}
